From paper PMC7769078 (International Journal of Nanomedicine, 2020) come the findings set out here.

Data set [1] relates to zebrafish larvae (7 dpf). Put plainly: C6-NPs endocytosis in larval zebrafish with endocytic inhibitors. It is filed as in vivo, zebrafish (Danio rerio). The following applies: 7 dpf larvae, 30 min inhibitor, C6-NPs 100 ng/mL 30 min.
In data set [2] the test system is SH-SY5Y cells. Put plainly: Cytoprotection against MPP+-induced cell death in SH-SY5Y cells. The data set is classed as cell-based, human. The following applies: for viability of MPP+-treated SH-SY5Y cells: 2 h pre-treatment, then 2 mM MPP+ 36 h.

For the compound `CN(C)CCCN1c2ccccc2Sc2ccc(Cl)cc21` [CPZ, chlorpromazine], the “inhibitory effect on C6-NPs internalization in zebrafish larvae” value in data set [1] is listed as “most profound inhibitory effect”. Turning to Ginkgolide B [GB], the “viability of MPP+-treated SH-SY5Y cells” value in data set [2] (1 μM) is on record as 60%; in data set [2] (5 μM), 65%; in data set [2] (10 μM) it was 71%; in data set [2] (20 μM), 78%. For `C[n+]1ccc(-c2ccccc2)cc1` [MPP^+, 1-methyl-4-phenylpyridinium ion], the “cell death induced in SH-SY5Y cells” value in data set [2] (2 mM MPP+, 36 h) is on record as 47.6%. With methyl-β-cyclodextrin [MβCD], the “inhibitory effect on C6-NPs internalization in zebrafish larvae” value in data set [1] is “most profound inhibitory effect”.
